{"source": "patent US20260092073A1", "about": "“NOVEL COMPOUNDS” (Hoffmann-La Roche Inc., priority 2023, published 2026)", "key": {"[1]": {"target": "T1, NLRP3 (Homo sapiens, UniProt Q96P20)", "T1 sequence (Q96P20 whole entry)": "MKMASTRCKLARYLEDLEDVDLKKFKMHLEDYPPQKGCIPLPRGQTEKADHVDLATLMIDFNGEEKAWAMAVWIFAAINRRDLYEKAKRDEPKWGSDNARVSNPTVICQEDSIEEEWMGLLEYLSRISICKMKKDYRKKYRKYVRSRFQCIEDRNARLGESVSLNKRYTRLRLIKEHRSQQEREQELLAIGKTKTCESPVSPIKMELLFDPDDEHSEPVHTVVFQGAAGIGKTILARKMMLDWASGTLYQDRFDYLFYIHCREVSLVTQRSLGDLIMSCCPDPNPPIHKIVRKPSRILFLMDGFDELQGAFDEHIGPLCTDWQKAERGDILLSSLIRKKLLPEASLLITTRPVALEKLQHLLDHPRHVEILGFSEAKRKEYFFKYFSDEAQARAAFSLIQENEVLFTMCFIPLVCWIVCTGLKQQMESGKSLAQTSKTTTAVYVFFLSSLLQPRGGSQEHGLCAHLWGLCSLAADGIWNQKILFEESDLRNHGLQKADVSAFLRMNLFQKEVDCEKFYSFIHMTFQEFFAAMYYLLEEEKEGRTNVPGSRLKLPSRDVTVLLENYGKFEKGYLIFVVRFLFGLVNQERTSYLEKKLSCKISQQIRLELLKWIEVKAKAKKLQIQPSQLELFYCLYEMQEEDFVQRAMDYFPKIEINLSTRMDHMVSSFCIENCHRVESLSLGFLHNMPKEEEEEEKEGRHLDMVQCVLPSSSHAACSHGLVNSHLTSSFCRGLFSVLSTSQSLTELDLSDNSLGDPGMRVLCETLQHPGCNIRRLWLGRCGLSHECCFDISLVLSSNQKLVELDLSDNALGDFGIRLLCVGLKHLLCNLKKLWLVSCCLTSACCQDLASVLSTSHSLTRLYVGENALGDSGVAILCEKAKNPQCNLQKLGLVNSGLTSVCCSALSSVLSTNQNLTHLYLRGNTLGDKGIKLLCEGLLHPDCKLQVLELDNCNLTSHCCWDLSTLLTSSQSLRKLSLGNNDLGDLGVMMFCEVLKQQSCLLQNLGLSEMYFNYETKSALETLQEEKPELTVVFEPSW", "test": "Human whole blood IL-1β release assay", "format": "cell-based", "design": "Human whole blood in Li-heparin tubes was obtained from healthy donors; from tissue; host or cells: human whole blood from healthy donors", "conditions": "LPS, nigericin 10 μM, IL-1β by AlphaLisa", "method": "For systemic delivery, the ability to inhibit NLRP3 when the compounds are present within the bloodstream is of great importance. For this reason, the NLRP3 inhibitory activity of a number of compounds in human whole blood was investigated in accordance with the following protocol.\nHuman whole blood in Li-heparin tubes was obtained from healthy donors from a volunteer donor panel.\nPlate out 80 μl of whole blood containing […] of LPS in 96-well, clear bottom cell culture plate (Corning #3585)\nAdd 10 μl compound (8 points half-log dilution with 10 μM top dose) or vehicle (DMSO 0.1% FAC) to the appropriate wells\n(§1) Incubate for 3 hours at 37° C., 5% CO2\nAdd 10 μl nigericin (Sigma #N7143) (10 μM FAC) to all wells\n(§2) Incubate for 1 hr at 37° C., 5% CO2\nAt the end of the incubation period, spin plates at 300 xg for 5 mins to pellet cells and remove 20 μl of supernatant and add to 96-well v-bottom plates for IL-1β analysis (note: these plates containing the supernatants can be stored at −80° C. to be analysed at a later date)\nIL-1β was measured according to the manufacturer protocol (Perkin Elmer-AlphaLisa IL-1 Kit AL220F-5000)\n(§3) IC50 data is fitted to a non-linear regression equation (log inhibitor vs response-variable slope 4-parameters)"}, "[2]": {"target": "T1, NLRP3", "test": "THP-1 cells pyroptosis assay", "format": "cell-based", "design": "Seed THP-1 cells (25,000 cells/well) containing 1.0 μg/ml LPS; host or cells: THP-1 cells, LPS-primed, nigericin-stimulated", "conditions": "LPS 1.0 μg/ml, nigericin 5 μM, resazurin readout", "source_text": "It is well established that the activation of NLRP3 leads to cell pyroptosis and this feature plays an important part in the manifestation of clinical disease (Yan-gang Liu et al., Cell Death & Disease, 2017, 8(2), e2579; Alexander Wree et al., Hepatology, 2014, 59(3), 898-910; Alex Baldwin et al., Journal of Medicinal Chemistry, 2016, 59(5), 1691-1710; Ema Ozaki et al., Journal of Inflammation Research, 2015, 8, 15-27; Zhen Xie & Gang Zhao, Neuroimmunology Neuroinflammation, 2014, 1(2), 60-65; Mattia Cocco et al., Journal of Medicinal Chemistry, 2014, 57(24), 10366-10382; T. Satoh et al., Cell Death & Disease, 2013, 4, e644). Therefore, it is anticipated that inhibitors of NLRP3 will block pyroptosis, as well as the release of pro-inflammatory cytokines (e.g. […]) from the cell.\nTHP-1 cells (ATCC #TIB-202) were grown in RPMI containing L-glutamine (Gibco #11835) supplemented with 1 mM sodium pyruvate (Sigma #S8636) and penicillin (100 units/ml)/streptomycin (0.1 mg/ml) (Sigma #P4333) in 10% Fetal Bovine Serum (FBS) (Sigma #F0804). The cells were routinely passaged and grown to confluency (˜10^6 cells/ml). On the day of the experiment, THP-1 cells were harvested and resuspended into RPMI medium (without FBS). The cells were then counted and viability (>90%) checked by Trypan blue (Sigma #T8154). Appropriate dilutions were made to give a concentration of 625,000 cells/ml. To this diluted cell solution was added LPS (Sigma #L4524) to give a […] Final Assay Concentration (FAC). 40 μl of the final preparation was aliquoted into each well of a 96-well plate. The plate thus prepared was used for compound screening.\nThe following method step-by-step assay was followed for compound screening.\nSeed THP-1 cells (25,000 cells/well) containing 1.0 μg/ml LPS in 40 μl of RPMI medium (without FBS) in 96-well, black walled, clear bottom cell culture plates coated with poly-D-lysine (VWR #734-0317)\nAdd 5 μl compound (8 points half-log dilution, with 10 μM top dose) or vehicle (DMSO 0.1% FAC) to the appropriate wells\nas §1\nAdd 5 μl nigericin (Sigma #N7143) (FAC 5 μM) to all wells\nas §2\nAt the end of the incubation period, spin plates at 300 xg for 3 mins and remove supernatant\nThen add 50 μl of resazurin (Sigma #R7017) (FAC 100 μM resazurin in RPMI medium without FBS) and incubate plates for a further 1-2 hours at 37° C. and 5% CO2\nPlates were read in an Envision reader at Ex 560 nm and Em 590 nm\nas §3"}}, "data": [{"smiles": "CCN1C[C@@H](O)C[C@@H](Nc2nc3nc(-c4c(C)cc5c(c4O)CCO5)cnc3o2)C1", "note": "[Example 25, (3S,5R)-1-Ethyl-5-[[5-(4-hydroxy-6-methyl-2,3-dihydrobenzofuran-5-yl)oxazolo[4,5-b]pyrazin-2-yl]amino]piperidin-3-ol]", "values": [{"measurement": "IC50", "setting": "[1]", "value": 16, "unit": "nM"}, {"measurement": "IC50", "setting": "[2]", "value": 2, "unit": "nM"}]}, {"smiles": "Cc1cc2c(c(O)c1-c1cnc3oc(N[C@@H]4CCCN(CCO)C4)nc3n1)CCO2", "note": "[Example 13, 5-[2-[[(3R)-1-(2-Hydroxyethyl)-3-piperidyl]amino]oxazolo[4,5-b]pyrazin-5-yl]-6-methyl-2,3-dihydrobenzofuran-4-ol]", "values": [{"measurement": "IC50", "setting": "[1]", "value": 19, "unit": "nM"}, {"measurement": "IC50", "setting": "[2]", "value": 0.8, "unit": "nM"}]}, {"smiles": "Cc1cc(C(F)(F)F)cc(O)c1-c1ccc2oc(N[C@@H]3C[C@H](O)CN(CCCC(=O)O)C3)nc2n1", "note": "[Example 5, 4-[(3S,5R)-3-Hydroxy-5-[[5-[2-hydroxy-6-methyl-4-(trifluoromethyl)phenyl]oxazolo[4,5-b]pyridin-2-yl]amino]-1-piperidyl]butanoic Acid]", "values": [{"measurement": "IC50", "setting": "[1]", "value": 432, "unit": "nM"}, {"measurement": "IC50", "setting": "[2]", "value": 51, "unit": "nM"}]}, {"smiles": "Cc1cc(C#N)cc(O)c1-c1cnc2oc(N[C@@H]3CCCN(CCO)C3)nc2n1", "note": "[Example 1, 3-Hydroxy-4-[2-[[(3R)-1-(2-hydroxyethyl)-3-piperidyl]amino]oxazolo[4,5-b]pyrazin-5-yl]-5-methyl-benzonitrile;2,2,2-trifluoroacetic Acid]", "values": [{"measurement": "IC50", "setting": "[1]", "value": 24.2, "unit": "nM"}, {"measurement": "IC50", "setting": "[2]", "value": 3.3, "unit": "nM"}]}, {"smiles": "Cc1cc(C#N)cc(O)c1-c1cnc2oc(N[C@@H]3C[C@H](O)CN(C)C3)nc2n1", "note": "[Example 7, 3-Hydroxy-4-[2-[[(3R,5S)-5-hydroxy-1-methyl-3-piperidyl]amino]oxazolo[4,5-b]pyrazin-5-yl]-5-methyl-benzonitrile;2,2,2-trifluoroacetic Acid]", "values": [{"measurement": "IC50", "setting": "[1]", "value": 17, "unit": "nM"}, {"measurement": "IC50", "setting": "[2]", "value": 10, "unit": "nM"}]}, {"smiles": "Cc1cc2c(c(O)c1-c1cnc3oc(N[C@@H]4C[C@H](O)CN(CCO)C4)nc3n1)CCO2", "note": "[Example 24, (3S,5R)-1-(2-Hydroxyethyl)-5-[[5-(4-hydroxy-6-methyl-2,3-dihydrobenzofuran-5-yl)oxazolo[4,5-b]pyrazin-2-yl]amino]piperidin-3-ol]", "values": [{"measurement": "IC50", "setting": "[1]", "value": 53, "unit": "nM"}, {"measurement": "IC50", "setting": "[2]", "value": 19, "unit": "nM"}]}, {"smiles": "Cc1cc(C#N)cc(O)c1-c1ccc2oc(N[C@H]3CNC[C@@H](O)C3)nc2n1", "note": "[Example 9, 3-Hydroxy-4-[2-[[(3R,5S)-5-hydroxy-3-piperidyl]amino]oxazolo[4,5-b]pyridin-5-yl]-5-methyl-benzonitrile]", "values": [{"measurement": "IC50", "setting": "[1]", "value": 84, "unit": "nM"}, {"measurement": "IC50", "setting": "[2]", "value": 45, "unit": "nM"}]}, {"smiles": "Cc1cc(C#N)cc(O)c1-c1cnc2oc(N[C@@H]3CCCN(CCO)C3)nc2n1", "note": "[Example 10, 3-Hydroxy-4-[2-[[(3R)-1-(2-hydroxyethyl)-3-piperidyl]amino]oxazolo[4,5-b]pyrazin-5-yl]-5-methyl-benzonitrile]", "values": [{"measurement": "IC50", "setting": "[1]", "value": 29, "unit": "nM"}, {"measurement": "IC50", "setting": "[2]", "value": 5, "unit": "nM"}]}, {"smiles": "COCc1cc2c(c(O)c1-c1cnc3oc(N[C@@H]4CCCN(CCO)C4)nc3n1)CCO2", "note": "[Example 11, 5-[2-[[(3R)-1-(2-Hydroxyethyl)-3-piperidyl]amino]oxazolo[4,5-b]pyrazin-5-yl]-6-(methoxymethyl)-2,3-dihydrobenzofuran-4-ol]", "values": [{"measurement": "IC50", "setting": "[1]", "value": 8, "unit": "nM"}, {"measurement": "IC50", "setting": "[2]", "value": 4, "unit": "nM"}]}, {"smiles": "COCc1cc2c(c(O)c1-c1cc(OC)c3oc(N[C@@H]4CCCN(CCO)C4)nc3n1)CCO2", "note": "[Example 21, 5-[2-[[(3R)-1-(2-Hydroxyethyl)-3-piperidyl]amino]-7-methoxy-oxazolo[4,5-b]pyridin-5-yl]-6-(methoxymethyl)-2,3-dihydrobenzofuran-4-ol]", "values": [{"measurement": "IC50", "setting": "[2]", "value": 9, "unit": "nM"}]}, {"smiles": "Cc1cc(C#N)cc(O)c1-c1ccc2oc(N[C@@H]3CCCN(CCCc4ncco4)C3)nc2n1", "note": "[Example 28, 3-Hydroxy-5-methyl-4-[2-[[(3R)-1-(3-oxazol-2-ylpropyl)-3-piperidyl]amino]oxazolo[4,5-b]pyridin-5-yl]benzonitrile]", "values": [{"measurement": "IC50", "setting": "[1]", "value": 86, "unit": "nM"}, {"measurement": "IC50", "setting": "[2]", "value": 23, "unit": "nM"}]}, {"smiles": "COc1cc(-c2c(C)cc(C#N)cc2O)nc2nc(N[C@@H]3CCCN(CCO)C3)oc12", "note": "[Example 16, 3-Hydroxy-4-[2-[[(3R)-1-(2-hydroxyethyl)-3-piperidyl]amino]-7-methoxy-oxazolo[4,5-b]pyridin-5-yl]-5-methyl-benzonitrile]", "values": [{"measurement": "IC50", "setting": "[1]", "value": 22, "unit": "nM"}, {"measurement": "IC50", "setting": "[2]", "value": 8, "unit": "nM"}]}, {"smiles": "CCN1C[C@@H](O)C[C@@H](Nc2nc3nc(-c4c(C)cc(C#N)cc4O)cnc3o2)C1", "note": "[Example 17, 4-[2-[[(3R,5S)-1-Ethyl-5-hydroxy-3-piperidyl]amino]oxazolo[4,5-b]pyrazin-5-yl]-3-hydroxy-5-methyl-benzonitrile]", "values": [{"measurement": "IC50", "setting": "[1]", "value": 18, "unit": "nM"}, {"measurement": "IC50", "setting": "[2]", "value": 3, "unit": "nM"}]}, {"smiles": "COc1cc(-c2c(C)cc3c(c2O)CCO3)nc2nc(N[C@@H]3CCCN(CCO)C3)oc12", "note": "[Example 22, 5-[2-[[(3R)-1-(2-Hydroxyethyl)-3-piperidyl]amino]-7-methoxy-oxazolo[4,5-b]pyridin-5-yl]-6-methyl-2,3-dihydrobenzofuran-4-ol]", "values": [{"measurement": "IC50", "setting": "[1]", "value": 39, "unit": "nM"}, {"measurement": "IC50", "setting": "[2]", "value": 5, "unit": "nM"}]}, {"smiles": "CCN1C[C@@H](O)C[C@@H](Nc2nc3nc(-c4c(C)cc(C#N)cc4O)cnc3o2)C1", "note": "[Example 2, 4-[2-[[(3R,5S)-1-Ethyl-5-hydroxy-3-piperidyl]amino]oxazolo[4,5-b]pyrazin-5-yl]-3-hydroxy-5-methyl-benzonitrile;2,2,2-trifluoroacetic Acid]", "values": [{"measurement": "IC50", "setting": "[1]", "value": 19.6, "unit": "nM"}, {"measurement": "IC50", "setting": "[2]", "value": 4.3, "unit": "nM"}]}, {"smiles": "Cc1cc(C#N)cc(O)c1-c1cc(F)c2oc(N[C@@H]3CCCN(CCO)C3)nc2n1", "note": "[Example 29, 4-[7-Fluoro-2-[[(3R)-1-(2-hydroxyethyl)-3-piperidyl]amino]oxazolo[4,5-b]pyridin-5-yl]-3-hydroxy-5-methyl-benzonitrile]", "values": [{"measurement": "IC50", "setting": "[1]", "value": 124, "unit": "nM"}, {"measurement": "IC50", "setting": "[2]", "value": 7, "unit": "nM"}]}, {"smiles": "COCc1cc(C#N)cc(O)c1-c1ccc2oc(N[C@@H]3CCCN(CCO)C3)nc2n1", "note": "[Example 3, 3-Hydroxy-4-[2-[[(3R)-1-(2-hydroxyethyl)-3-piperidyl]amino]oxazolo[4,5-b]pyridin-5-yl]-5-(methoxymethyl)benzonitrile]", "values": [{"measurement": "IC50", "setting": "[1]", "value": 35.2, "unit": "nM"}, {"measurement": "IC50", "setting": "[2]", "value": 27.9, "unit": "nM"}]}, {"smiles": "Cc1cc(C#N)cc(O)c1-c1ccc2oc(N[C@@H]3CCCN(CCc4ncco4)C3)nc2n1", "note": "[Example 4, 3-Hydroxy-5-methyl-4-[2-[[(3R)-1-(2-oxazol-2-ylethyl)-3-piperidyl]amino]oxazolo[4,5-b]pyridin-5-yl]benzonitrile]", "values": [{"measurement": "IC50", "setting": "[1]", "value": 192, "unit": "nM"}, {"measurement": "IC50", "setting": "[2]", "value": 26.1, "unit": "nM"}]}, {"smiles": "CCN1C[C@@H](O)C[C@@H](Nc2nc3nc(-c4c(C)cc(C#N)cc4O)cc(F)c3o2)C1", "note": "[Example 27, 4-[2-[[(3R,5S)-1-Ethyl-5-hydroxy-3-piperidyl]amino]-7-fluoro-oxazolo[4,5-b]pyridin-5-yl]-3-hydroxy-5-methyl-benzonitrile]", "values": [{"measurement": "IC50", "setting": "[1]", "value": 95, "unit": "nM"}, {"measurement": "IC50", "setting": "[2]", "value": 6, "unit": "nM"}]}, {"smiles": "COc1cc(-c2c(C)cc3c(c2O)CCC3)nc2nc(N[C@@H]3CCCN(CCO)C3)oc12", "note": "[Example 19, 5-[2-[[(3R)-1-(2-Hydroxyethyl)-3-piperidyl]amino]-7-methoxy-oxazolo[4,5-b]pyridin-5-yl]-6-methyl-indan-4-ol]", "values": [{"measurement": "IC50", "setting": "[2]", "value": 4, "unit": "nM"}]}]}
